Biological target: T1, LRRK2 kinase in SH-SY5Y cells over-expressing recombinant full length LRRK2 (Homo sapiens, UniProt Q5S007)
T1 construct: A BacMam virus expressing full length recombinant LRRK2 was purchased from Invitrogen; host or cells: SH-SY5Y human neuroblastoma cells transduced with BacMam LRRK2 virus
Experiment: Recombinant cellular LRRK2 AlphaScreen assay (LRRK2 Ser935 phosphorylation)
Format: cell-based
Conditions: 60 min
Procedure, shortened: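 SH-SY5Y cells transduced with BacMam full-length LRRK2 (MOI 50) for 24 h, then treated 60 min at 37 °C with compound (11-point 1:4 series, top 10 uM, 0.1% DMSO). Lysates probed by AlphaScreen for pSer935 vs total LRRK2; values fitted to a sigmoidal dose-response model.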

T1 sequence (Q5S007 whole entry): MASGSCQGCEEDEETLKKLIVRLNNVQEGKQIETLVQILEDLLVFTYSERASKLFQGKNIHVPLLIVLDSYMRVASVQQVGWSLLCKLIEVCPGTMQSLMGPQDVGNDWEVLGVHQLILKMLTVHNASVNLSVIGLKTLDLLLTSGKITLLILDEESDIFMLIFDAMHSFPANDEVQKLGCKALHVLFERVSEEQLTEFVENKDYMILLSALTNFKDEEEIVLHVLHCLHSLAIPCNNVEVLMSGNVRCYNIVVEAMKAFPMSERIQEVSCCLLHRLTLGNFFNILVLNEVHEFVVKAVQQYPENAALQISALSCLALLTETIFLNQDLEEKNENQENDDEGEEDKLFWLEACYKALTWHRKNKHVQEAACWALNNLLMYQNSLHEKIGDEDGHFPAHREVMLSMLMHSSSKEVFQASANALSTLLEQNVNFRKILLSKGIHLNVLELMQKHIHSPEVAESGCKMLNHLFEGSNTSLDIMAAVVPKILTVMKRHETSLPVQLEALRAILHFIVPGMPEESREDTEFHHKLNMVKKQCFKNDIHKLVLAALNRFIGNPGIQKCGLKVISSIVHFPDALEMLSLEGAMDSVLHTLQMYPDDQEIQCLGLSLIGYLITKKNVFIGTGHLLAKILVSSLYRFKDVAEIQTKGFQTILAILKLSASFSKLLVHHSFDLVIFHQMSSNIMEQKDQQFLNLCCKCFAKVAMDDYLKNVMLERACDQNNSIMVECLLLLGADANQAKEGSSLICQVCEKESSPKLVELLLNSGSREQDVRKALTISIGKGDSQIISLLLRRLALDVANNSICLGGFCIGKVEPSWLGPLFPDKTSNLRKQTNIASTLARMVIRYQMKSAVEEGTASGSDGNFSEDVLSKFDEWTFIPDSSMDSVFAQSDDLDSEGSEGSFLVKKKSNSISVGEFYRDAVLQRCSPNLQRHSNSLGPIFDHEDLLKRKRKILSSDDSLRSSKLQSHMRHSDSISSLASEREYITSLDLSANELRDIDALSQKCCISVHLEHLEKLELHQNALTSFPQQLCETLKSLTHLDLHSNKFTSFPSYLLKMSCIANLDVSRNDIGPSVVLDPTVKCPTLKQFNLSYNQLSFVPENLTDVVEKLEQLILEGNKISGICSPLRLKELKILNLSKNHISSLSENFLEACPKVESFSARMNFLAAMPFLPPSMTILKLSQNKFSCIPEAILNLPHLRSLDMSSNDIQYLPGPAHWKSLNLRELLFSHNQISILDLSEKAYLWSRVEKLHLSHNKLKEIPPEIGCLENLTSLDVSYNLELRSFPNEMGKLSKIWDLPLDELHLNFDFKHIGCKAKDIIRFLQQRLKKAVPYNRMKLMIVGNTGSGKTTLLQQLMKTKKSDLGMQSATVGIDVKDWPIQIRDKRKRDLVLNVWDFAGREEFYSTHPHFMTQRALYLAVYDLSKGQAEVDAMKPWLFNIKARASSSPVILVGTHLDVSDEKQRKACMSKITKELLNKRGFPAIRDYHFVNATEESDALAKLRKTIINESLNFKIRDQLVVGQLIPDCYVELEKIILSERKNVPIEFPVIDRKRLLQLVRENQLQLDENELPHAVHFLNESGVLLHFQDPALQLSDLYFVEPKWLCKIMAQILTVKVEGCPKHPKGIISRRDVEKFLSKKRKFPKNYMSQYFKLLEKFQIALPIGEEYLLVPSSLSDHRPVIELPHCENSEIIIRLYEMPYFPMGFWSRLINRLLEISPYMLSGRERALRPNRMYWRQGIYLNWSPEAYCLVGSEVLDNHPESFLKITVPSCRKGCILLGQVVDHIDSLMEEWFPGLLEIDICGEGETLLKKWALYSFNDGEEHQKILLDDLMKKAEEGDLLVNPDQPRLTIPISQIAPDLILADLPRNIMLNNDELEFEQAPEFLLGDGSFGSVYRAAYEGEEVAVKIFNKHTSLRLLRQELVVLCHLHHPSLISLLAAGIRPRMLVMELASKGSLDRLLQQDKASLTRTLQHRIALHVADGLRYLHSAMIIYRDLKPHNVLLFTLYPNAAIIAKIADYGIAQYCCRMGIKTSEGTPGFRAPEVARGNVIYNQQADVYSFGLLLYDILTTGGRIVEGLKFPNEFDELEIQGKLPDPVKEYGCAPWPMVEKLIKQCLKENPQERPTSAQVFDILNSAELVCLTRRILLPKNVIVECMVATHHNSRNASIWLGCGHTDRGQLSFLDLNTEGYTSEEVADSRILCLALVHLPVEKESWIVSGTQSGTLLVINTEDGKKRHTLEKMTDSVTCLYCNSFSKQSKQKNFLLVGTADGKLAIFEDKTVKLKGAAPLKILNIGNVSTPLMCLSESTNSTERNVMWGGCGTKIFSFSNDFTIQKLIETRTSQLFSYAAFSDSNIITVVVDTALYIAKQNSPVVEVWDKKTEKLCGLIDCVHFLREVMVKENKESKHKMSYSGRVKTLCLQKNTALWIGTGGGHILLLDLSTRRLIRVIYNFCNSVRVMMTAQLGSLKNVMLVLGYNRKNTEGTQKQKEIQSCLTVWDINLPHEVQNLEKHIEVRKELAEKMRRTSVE

SMILES | IC50 [µM]
Cc1c2c(nn1C1CCCOC1)OCCCNc1nc(ncc1Cl)N2 (centres unmarked) [E8, 14-Chloro-4-methyl-5-(oxan-3-yl)-8-oxa-2,5,6,12,16,17-hexaazatricyclo[11.3.1.0^3,7]heptadeca-1(16),3,6,13(17),14-pentaene] | ≤ 0.1
N#Cc1c2c(nn1C1CCOCC1)OCCCNc1nc(ncc1Cl)N2 [E14, 14-Chloro-5-(oxan-4-yl)-8-oxa-2,5,6,12,16,17-hexaazatricyclo[11.3.1.0^3,7]heptadeca-1(16),3,6,13(17),14-pentaene-4-carbonitrile] | ≤ 0.1
N#Cc1cnc2nc1NCCCOc1nn(C3CCOCC3)c(Cl)c1N2 [E15, 4-Chloro-5-(oxan-4-yl)-8-oxa-2,5,6,12,16,17-hexaazatricyclo[11.3.1.0^3,7]heptadeca-1(16),3,6,13(17),14-pentaene-14-carbonitrile] | ≤ 0.1
Cc1c2c(nn1C1CCOCC1)OCC(F)CNc1nc(ncc1Cl)N2 (centres unmarked) [E16, 14-Chloro-10-fluoro-4-methyl-5-(oxan-4-yl)-8-oxa-2,5,6,12,16,17-hexaazatricyclo [11.3.1.0^3,7]heptadeca-1(16),3,6,13(17),14-pentaene] | ≤ 0.1
Cc1c2c(nn1C1CCOCC1)OCCCNc1nc(ncc1C#N)N2 [E69, 4-Methyl-5-(oxan-4-yl)-8-oxa-2,5,6,12,16,17-hexaazatricyclo[11.3.1.0^3,7]heptadeca-1(16),3,6,13(17),14-pentaene-14-carbonitrile] | ≤ 0.1
Cc1c2c(nn1C)OCCCNc1nc(ncc1Cl)N2 [E108, 14-Chloro-4,5-dimethyl-8-oxa-2,5,6,12,16,17-hexaazatricyclo [11.3.1.0^3,7]heptadeca-1(16),3,6,13(17),14-pentaene] | ≤ 0.1
Cc1c2c(nn1C1CCOCC1)OCCCNc1nc(ncc1C(F)(F)F)N2 [E111, 4-Methyl-5-(oxan-4-yl)-14-(trifluoromethyl)-8-oxa-2,5,6,12,16, 17-hexaazatricyclo[11.3.1.0^3,7]heptadeca-1(16),3,6,13(17),14-pentaene] | ≤ 0.1
FC(F)c1c2c(nn1C1CCOCC1)OCCCNc1nc(ncc1C(F)(F)F)N2 [E118, 4-(Difluoromethyl)-5-(oxan-4-yl)-14-(trifluoromethyl)-8-oxa-2,5,6,12,16,17-hexaazatricyclo[11.3.1.0^3,7]heptadeca-1(16),3,6, 13(17),14-pentaene] | ≤ 0.1
COC1CNc2nc(ncc2C(F)(F)F)Nc2c(nn(C3CCOCC3)c2C)OC1 (centres unmarked) [E119, 10-Methoxy-4-methyl-5-(oxan-4-yl)-14-(trifluoromethyl)-8-oxa-2,5,6,12,16,17-hexaazatricyclo[11.3.1.0^3,7]heptadeca-1(16),3,6, 13(17),14-pentaene] | ≤ 0.1
Cc1c2c(nn1C1CCOC1)OCCCNc1nc(ncc1Cl)N2 (centres unmarked) [E122, 14-Chloro-4-methyl-5-(oxolan-3-yl)-8-oxa-2,5,6,12,16,17-hexa azatricyclo[11.3.1.0^3,7]heptadeca-1(16),3,6,13(17),14-pentaene] | ≤ 0.1
Cc1c2c(nn1C1CCOCC1)OCCCNc1cc(ncc1C(F)(F)F)N2 [E125, 4-Methyl-5-(oxan-4-yl)-14-(trifluoromethyl)-8-oxa-2,5,6,12,16-pentaazatricyclo[11.3.1.0^3,7]heptadeca-1(16),3,6,13(17),14-pentaene] | ≤ 0.1
Cc1c2c(nn1C1CCOC1)OCCCNc1nc(ncc1C(F)(F)F)N2 (centres unmarked) [E126, 4-Methyl-5-(oxolan-3-yl)-14-(trifluoromethyl)-8-oxa-2,5,6,12,16, 17-hexaazatricyclo[11.3.1.0^3,7]heptadeca-1(16),3,6,13(17),14-pentaene] | ≤ 0.1
Cc1c2c(nn1C1CCCOC1)OCCCNc1nc(ncc1C(F)(F)F)N2 (centres unmarked) [E131, 4-Methyl-5-(oxan-3-yl)-14-(trifluoromethyl)-8-oxa-2,5,6,12,16, 17-hexaazatricyclo[11.3.1.0^3,7]heptadeca-1(16),3,6,13(17),14-pentaene] | ≤ 0.1
Cc1c2c(nn1C1CCOCC1)OCC(C)CNc1nc(ncc1Cl)N2 (centres unmarked) [E135, 14-Chloro-4,10-dimethyl-5-(oxan-4-yl)-8-oxa-2,5,6,12,16,17-hexaazatricyclo[11.3.1.0^3,7]heptadeca-1(16),3,6,13(17),14-pentaene] | ≤ 0.1
Cc1c2c(nn1C1CCOCC1C)OCCCNc1nc(ncc1Cl)N2 (centres unmarked) [E139, 14-Chloro-4-methyl-5-(3-methyloxan-4-yl)-8-oxa-2,5,6,12,16,17-hexaazatricyclo[11.3.1.0^3,7]heptadeca-1(16),3,6,13(17),14-pentaene] | ≤ 0.1
Cc1c2c(nn1C1CCC(F)(F)CC1)OCCCNc1nc(ncc1Cl)N2 [E142, 14-Chloro-5-(4,4-difluorocyclohexyl)-4-methyl-8-oxa-2,5,6,12, 16,17-hexaazatricyclo[11.3.1.0^3,7]heptadeca-1(16),3,6,13(17),14-pentaene] | ≤ 0.1

SMILES | IC50 [µM]
Cc1c2c(nn1CC1(C)COC1)OCCCNc1nc(ncc1Cl)N2 [E143, 14-Chloro-4-methyl-5-[(3-methyloxetan-3-yl)methyl]-8-oxa-2,5,6,12,16,17-hexaazatricyclo[11.3.1.0^3,7]heptadeca-1(16),3,6, 13(17), 14-pentaene] | ≤ 0.1
Clc1cnc2nc1NCCCOc1nn(C3CCOC3)c(Cl)c1N2 (centres unmarked) [E144, 4,14-Dichloro-5-(oxolan-3-yl)-8-oxa-2,5,6,12,16,17-hexaaza tricyclo[11.3.1.0^3,7]heptadeca-1(16),3,6,13(17),14-pentaene] | ≤ 0.1
Cc1c2c(nn1CCN1CCOCC1)OCCCNc1nc(ncc1Cl)N2 [E220, 14-Chloro-4-methyl-5-[2-(morpholin-4-yl)ethyl]-8-oxa-2,5,6,12, 16,17-hexaazatricyclo[11.3.1.0^3,7]heptadeca-1(16),3,6,13(17),14-pentaene] | ≤ 0.1
Cc1c2c(nn1C1CC3(COC3)C1)OCCCNc1nc(ncc1Cl)N2 [E300, 14-Chloro-4-methyl-5-{2-oxaspiro[3.3]heptan-6-yl}-8-oxa-2,5,6,12,16,17-hexaazatricyclo[11.3.1.0^3,7]heptadeca-1(16),3,6,13(17),14-pentaene] | ≤ 0.1
Cc1c2c(nn1C1CC(N3C[C@H]4C[C@@H]3CO4)C1)OCCCNc1nc(ncc1Cl)N2 (stereo partly drawn) [E310, 14-Chloro-4-methyl-5-{3-[(1R,4R)-2-oxa-5-azabicyclo[2.2.1]heptan-5-yl]-cyclobutyl}-8-oxa-2,5,6,12,16,17-hexaazatricyclo [11.3.1.0^3,7]heptadeca-1(16),3,6,13(17),14-pentaene] | ≤ 0.1
Cc1c2c(nn1C1CCOC(CO)C1)OCC[C@@H](C)Nc1nc(ncc1Cl)N2 (stereo partly drawn) [E331, {4-[(11R)-14-Chloro-4,11-dimethyl-8-oxa-2,5,6,12,16,17-hexaazatricyclo[11.3.1.0^3,7]heptadeca-1(16),3,6,13(17),14-pentaen-5-yl]oxan-2-yl}methanol] | ≤ 0.1
Cc1c2c(nn1CC1CCOCC1)OCCCNc1nc(ncc1Cl)N2 [E338, 14-Chloro-4-methyl-5-(oxan-4-ylmethyl)-8-oxa-2,5,6,12,16,17-hexaazatricyclo[11.3.1.0^3,7]heptadeca-1(16),3,6,13(17),14-pentaene] | ≤ 0.1
COC1CNc2nc(ncc2Cl)Nc2c(nn(C3CCOCC3)c2Cl)OC1 (centres unmarked) [E339, 4,14-Dichloro-10-methoxy-5-(oxan-4-yl)-8-oxa-2,5,6,12,16,17-hexaazatricyclo[11.3.1.0^3,7]heptadeca-1(16),3,6,13(17),14-pentaene] | ≤ 0.1
COC1CNc2cc(ncc2Cl)Nc2c(nn(C3CCOCC3)c2C)OC1 (centres unmarked) [E342, 14-Chloro-10-methoxy-4-methyl-5-(oxan-4-yl)-8-oxa-2,5,6, 12,16-pentaazatricyclo[11.3.1.0^3,7]heptadeca-1(16),3,6,13(17), 14-pentaene] | ≤ 0.1
CC1CCOc2nn(C3CCOCC3)c(Cl)c2Nc2ncc(Cl)c(n2)N1 (centres unmarked) [E343, 4,14-Dichloro-11-methyl-5-(oxan-4-yl)-8-oxa-2,5,6,12,16,17-hexaazatricyclo[11.3.1.0^3,7]heptadeca-1(16),3,6,13(17),14-pentaene] | ≤ 0.1
Cc1c2c(nn1C1CCOCC1)OCC[C@@H](C)N(C)c1nc(ncc1Cl)N2 [E359, (11R)-14-Chloro-4,11,12-trimethyl-5-(oxan-4-yl)-8-oxa-2,5,6,12,16,17-hexaazatricyclo[11.3.1.0^3,7]heptadeca-1(16),3,6,13(17),14-pentaene] | ≤ 0.1
Cc1c2c(nn1C1CCC(F)(F)CC1)OCC[C@@H](C)Nc1nc(ncc1Cl)N2 [E373, (11R)-14-Chloro-5-(4,4-difluorocyclohexyl)-4,11-dimethyl-8-oxa-2,5,6,12,16,17-hexaazatricyclo[11.3.1.0^3,7]heptadeca-1(16),3,6,13 (17),14-pentaene] | ≤ 0.1
Cc1c2c(nn1C1CCC(OC(F)F)CC1)OCC[C@@H](C)Nc1nc(ncc1Cl)N2 (stereo partly drawn) [E374, (11R)-14-Chloro-5-[4-(difluoromethoxy)cyclohexyl]-4,11-di methyl-8-oxa-2,5,6,12,16,17-hexaazatricyclo[11.3.1.0^3,7]hepta deca-1(16),3,6,13(17),14-pentaene] | ≤ 0.1
COCCN1c2nc(ncc2Cl)Nc2c(nn(C3CCOCC3)c2C)OCC[C@H]1C [E400, (11R)-14-Chloro-12-(2-methoxyethyl)-4,11-dimethyl-5-(oxan-4-yl)-8-oxa-2,5,6,12,16,17-hexaazatricyclo[11.3.1.0^3,7]heptadeca-1(16),3,6,13(17),14-pentaene] | ≤ 0.1
Cc1c2c(nn1C1CN(C3COC3)CCO1)OCC[C@@H](C)Nc1nc(ncc1Cl)N2 (stereo partly drawn) [E402, (11R)-14-Chloro-4,11-dimethyl-5-[4-(oxetan-3-yl)morpholin-2-yl]-8-oxa-2,5,6,12,16,17-hexaazatricyclo[11.3.1.0^3,7]heptadeca-1(16),3,6,13(17),14-pentaene] | ≤ 0.1
Cc1[nH]nc2c1Nc1ncc(Cl)c(n1)NCC(C)CO2 (centres unmarked) [E431, 14-Chloro-4,10-dimethyl-8-oxa-2,5,6,12,16,17-hexaazatricyclo[11.3.1.0^3,7]heptadeca-1(16),3,6,13(17),14-pentaene] | ≤ 0.1

Reference: US20200392158A1, “INHIBITORS OF LEUCINE RICH REPEAT KINASE 2” (GLAXOSMITHKLINE INTELLECTUAL PROPERTY DEVELOPMENT LIMITED, priority 2017, published 2020)
